“Also recorded” adds a separate entry of the source.
Key:
[1] = biological target: T1, P2ry12 (Homo sapiens, UniProt Q9H244); assay: ADP trans-well migration assay; assay type: cell-based; details: pre-exposure 50 μM, 1 hr; ADP 100 μM
T1 construct: iMGLs express the microglial-enriched purinergic receptor P2ry12; endogenous in cells; host or cells: iMGLs (human iPSC-derived microglia-like cells)
Experimental: Trans-well migration assays to ADP was performed as previously described (De Simone et al., 2010; Moore et al., 2015). iMGLs (5.5×10^4 cells/well) were cultured in serum-free basal media without cytokines for 1hour. Next, iMGLS were pre-exposed to DMSO or PSB0739 (50 μM, Tocris) for 1 hr at 37° C. in 5% CO2 cell culture incubator. Cells were then washed three times with basal medium and plated in trans-well migration chambers (5 μm polycarbonate inserts in 24 wells; Corning) containing […] (ADP, 100 μM; Sigma) in the bottom chamber in 37° C. in 5% CO2. After 4 hours, cells were washed three times and fixed in PFA (4%) for 15 minutes at room temperature. Cells were stained with Hoechst stain for 10 mins to visualize nuclei of cells. A blinded observer counted total cells per slide and then scrubbed cells off top surface, washed with PBS, and recounted to record migrated cells. Migration was reported as migrated over total cells per well. Fluorescent images of cells were captured using Olympus IX71 inverted microscope. […] […]

[2] = biological target: T1, P2ry12; assay: ADP calcium imaging (Fura-2-AM, I340/I380); assay type: cell-based; details: 50 μM, 1 hour; ADP 10 μM
Experimental: For calcium imaging, iMGLs were plated on poly-L-lysine-coated coverslips and 1 hour later were incubated with Fura-2-AM (Molecular Probes) calcium dye diluted in Ringer solution containing (in mM): NaCl 140, KCl 4.5, CaCl2 2, MgCl2 1, HEPES 10, glucose 10, sucrose 5, pH=7.4. After a 1-hour incubation, the dye was washed out 3 times using Ringer solution and treated for 1 hour with either P2RY12 inhibitor PSB0739 (50 μM, Tocris) or Vehicle (DMSO) and used for experiments. Baseline Ca^2+ signal (I340/I380) were measured for more than 100 s and then ADP (10 μM) was introduced under stead flow after baseline measurement. Ca^2+ recordings were performed on Zeiss (Axiovert 35)-based imaging setup and data acquisition was conducted with Metafluor software (Molecular Devices). Data analysis was performed using Metafluor, Origin Pro, and Prism 6.0.

[3] = tested on: iMGLs; assay: Mesoscale multiplex cytokine and chemokine assay of iMGL conditioned media; assay type: cell-based, human; details: for CCL2 secretion, mean ± SE / CCL3 secretion, mean ± SE / CCL4 secretion, mean ± SE / CCL17 secretion, mean ± SE / CXCL10 secretion, mean ± SE / IL1A secretion, mean ± SE / IL6 secretion, mean ± SE / IL8 secretion, mean ± SE / IL10 secretion, mean ± SE / TNFA secretion, mean ± SE: iMGLs stimulated 24 h, IFNγ 20 ng/ml, IL-1β 20 ng/ml or LPS 100 ng/ml; for TNFA secretion, mean ± SE: n=3 wells/group; for cytokines/chemokines secreted by iMGLs in response to the stimulus: of the 10 examined cytokines, 24 h
Experimental: iMGLs culture media was replaced with basal media for 2 hours prior to stimulation with IFNγ (20 ng/ml), IL1β (20 ng/ml), and LPS (100 ng/ml) for 24 hours, after which cells were collected for RNA and conditioned media assessed for cytokine secretion. To simultaneously assess multiple cytokine and chemokine analytes from iMGL conditioned media, conditioned media from each treatment group was processed and analyzed using the V-PLEX human cytokine 30-plex kit (Mesoscale) according to the manufacturer protocol.

[4] = tested on: iMGLs; assay: RNA-seq differential gene expression of iMGLs with or without TGFβ; assay type: cell-based, human
Experimental: Cells were harvested and washed three times with DPBS and stored in RNAlater, RNA preservation solution. RNA was extracted from all cell types using RNeasy Mini Kit (Qiagen) following manufacturer's guidelines. RNA integrity (RIN) was measured for all samples using the Bioanalzyer Agilent 2100 series. All sequencing libraries analyzed were generated from RNA samples measuring a RIN score≥9. The Illumina TruSeq mRNA stranded protocol was used to obtain poly-A mRNA from all samples. 200 ng of isolated mRNA was used to construct RNA-seq libraries. Libraries were quantified and normalized using the Library Quantification Kit from Kapa Biosystems and sequenced as paired-end 100 bp reads on the Illumina HiSeq 2500 platform.
RNA-seq reads were mapped to the hg38 reference genome using STAR aligner and mapped to Gencode version 24 gene annotations using RSEM. Genes with expression (<1 FPKM) across all samples were filtered from all subsequent analysis. Differential gene expression analysis was performed on TMM normalized counts with EdgeR (Robinson et al., 2010). Multiple biological replicates were used for all comparative analysis. A p-value≤0.001 and a 2-fold change in expression were used in determining significant differentially expressed genes for respective comparisons. PCA analysis was performed using the R package rgl and plotted using plot3d. […]

T1 sequence (Q9H244 whole entry): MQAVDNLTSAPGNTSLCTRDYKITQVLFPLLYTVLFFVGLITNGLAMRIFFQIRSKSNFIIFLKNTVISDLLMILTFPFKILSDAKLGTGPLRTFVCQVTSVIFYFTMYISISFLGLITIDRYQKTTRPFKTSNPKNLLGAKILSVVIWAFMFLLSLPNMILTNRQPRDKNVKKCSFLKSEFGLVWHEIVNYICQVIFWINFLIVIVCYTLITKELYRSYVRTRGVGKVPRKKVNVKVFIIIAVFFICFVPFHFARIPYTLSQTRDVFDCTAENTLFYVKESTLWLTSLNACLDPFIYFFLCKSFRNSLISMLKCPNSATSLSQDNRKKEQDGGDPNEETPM

`Nc1c(S(=O)(=O)O)cc(Nc2ccc(Nc3ccccc3)c(S(=O)(=O)O)c2)c2c1C(=O)c1ccccc1C2=O` [PSB0739] was tested, and the “effect on ADP-induced iMGL migration” value [1] was “negated; also recorded: completely abrogates ADP-induced iMGL migration” and the “effect on ADP-induced calcium flux in iMGLs” value [2] was “negated”.
For “IFNγ: cytokine used to stimulate iMGLs (20 ng/ml)”, the “CCL2 secretion, mean ± SE” value [3] was 993.26 ± 55.76, the “CCL3 secretion, mean ± SE” value [3] was 295.39 ± 19.72 and the “CCL4 secretion, mean ± SE” value [3] was 4,514.72 ± 10.01^. The “CCL17 secretion, mean ± SE” value [3] was 25.82 ± 1.98, the “CXCL10 secretion, mean ± SE” value [3] was 0.00 ± 0.00 and the “IL1A secretion, mean ± SE” value [3] was 1.48 ± 0.25. The “IL6 secretion, mean ± SE” value [3] was 12.22 ± 1.44, the “IL8 secretion, mean ± SE” value [3] was 3549.05 ± 181.22 and the “IL10 secretion, mean ± SE” value [3] was 4.59 ± 2.35. The “TNFA secretion, mean ± SE” value [3] was 58.82 ± 8.80 and the “cytokines/chemokines secreted by iMGLs in response to the stimulus” value (shortened to “cytokines/chemokines secreted by iMGLs”) [3] was 8.
For Lipopolysaccharide [LPS], the “CCL2 secretion, mean ± SE” value [3] was 5,695.46 ± 275.72, the “CCL3 secretion, mean ± SE” value [3] was 0.00 ± 0.00 and the “CCL4 secretion, mean ± SE” value [3] was 4,594.57 ± 33.96^. The “CCL17 secretion, mean ± SE” value [3] was 92.96 ± 7.70, the “CXCL10 secretion, mean ± SE” value [3] was 73.72 ± 4.53 and the “IL1A secretion, mean ± SE” value [3] was 30.55 ± 2.19. The “IL6 secretion, mean ± SE” value [3] was 274.39 ± 15.25, the “IL8 secretion, mean ± SE” value [3] was 4,347.96 ± 75.61^ and the “IL10 secretion, mean ± SE” value [3] was 31.31 ± 1.52. The “TNFA secretion, mean ± SE” value [3] was 116.49 ± 9.77 and the “cytokines/chemokines secreted by iMGLs” value [3] was “induction of all measured cytokines except for CCL3”.
With “TGFβ: glia-derived cytokine in iMGL differentiation media (50 ng/ml)” the “genes differentially expressed in iMGLs after TGFβ removal” value ([4]; TGFβ removal (24 hours)) was 1517 genes and the “genes differentially expressed (increased) in iMGLs with TGFβ” value ([4]; presence of TGFβ) was 1262 genes.
With “IL-1β: cytokine used to stimulate iMGLs (20 ng/ml)” the “CCL2 secretion, mean ± SE” value [3] was 275.98 ± 19.54, the “CCL3 secretion, mean ± SE” value [3] was 556.24 ± 54.01 and the “CCL4 secretion, mean ± SE” value [3] was 4,492.26 ± 51.35^. The “CCL17 secretion, mean ± SE” value [3] was 21.75 ± 1.94, the “CXCL10 secretion, mean ± SE” value [3] was 69.49 ± 4.73 and the “IL1A secretion, mean ± SE” value [3] was 4.89 ± 1.45. For the same molecule, the “IL6 secretion, mean ± SE” value [3] was 13.92 ± 0.41, the “IL8 secretion, mean ± SE” value [3] was 3,004.54 ± 47.58^ and the “IL10 secretion, mean ± SE” value [3] was 4.42 ± 1.33. The “TNFA secretion, mean ± SE” value [3] was 29.74 ± 0.65 and the “cytokines/chemokines secreted by iMGLs” value [3] was 8.

From US20240417684A1, “DIFFERENTIATION AND USE OF HUMAN MICROGLIA-LIKE CELLS FROM PLURIPOTENT STEM CELLS AND HEMATOPOIETIC PROGENITORS” (THE REGENTS OF THE UNIVERSITY OF CALIFORNIA, priority 2017, published 2024)
